Structures can show the parent of a compound that is named as a salt. Where two headings read alike, the source gives them in different places.
Columns and labels:
[1] = human, in vivo
[2] = system: patients with atrial fibrillation or atrial flutter; assay: ATHENA clinical study, patients with beta-blockers baseline medication; type: in vivo
Method: The relative risk (RR) was estimated using Cox's […] regression model.
The relative risk (RR) is the ratio of the rates of occurrence of a hospitalization or of a death among the patients on dronedarone, relative to the patients on placebo.
The percentage reduction x of a given event (hospitalization, death, cardiovascular death, etc.) is calculated in the following way: x=1−relative risk. Results Relating to the Prevention of Cardiovascular Hospitalization or Death

CYP2D6 = molecular target: T1, CYP2D6 (Homo sapiens, UniProt P10635); assay: CYP2D6 inhibition in vivo, from metoprolol interaction (Example 1); design: species or system human (CYP2D6 extensive metabolizer subjects); conditions: dronedarone 400 mg BID, metoprolol 200 mg OD as substrate
T1 construct: endogenous in cells; host or cells: healthy human volunteers in vivo (endogenous enzyme, CYP2D6 extensive metabolizers)
T1 sequence (P10635 whole entry): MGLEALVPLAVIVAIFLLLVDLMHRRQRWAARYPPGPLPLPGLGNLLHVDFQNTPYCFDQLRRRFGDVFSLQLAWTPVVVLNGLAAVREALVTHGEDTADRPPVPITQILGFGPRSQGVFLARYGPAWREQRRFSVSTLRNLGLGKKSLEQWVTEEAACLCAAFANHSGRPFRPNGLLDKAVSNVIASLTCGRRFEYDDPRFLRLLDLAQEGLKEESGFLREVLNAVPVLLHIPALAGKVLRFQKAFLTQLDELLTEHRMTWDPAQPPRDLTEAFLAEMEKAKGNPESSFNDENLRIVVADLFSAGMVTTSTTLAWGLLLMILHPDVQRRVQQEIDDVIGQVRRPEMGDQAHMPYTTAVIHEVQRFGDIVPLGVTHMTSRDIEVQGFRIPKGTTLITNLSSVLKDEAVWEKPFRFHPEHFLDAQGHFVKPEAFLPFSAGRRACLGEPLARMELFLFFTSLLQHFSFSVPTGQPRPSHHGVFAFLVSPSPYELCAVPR
Method: (§1) All treatments were administered in fed conditions.
The interaction ratio is lower than the existing 3-(Cmax) to 6-fold (AUC) difference in metoprolol exposure between poor and extensive CYP2D6 metabolizers.

healthy male subjects = assay: Propranolol/dronedarone interaction study: pharmacodynamics, electrocardiogram and vital signs at rest and during sub-maximal exercise (Example 2); type: in vivo, human (healthy male subjects)
Method: as §1
Pharmacodynamics: Resting vital signs were summarized by the synthetic parameter AUC0-8 and analyzed for “treatment effects and chronological (“time”) effects using repeated measures analysis of variance. Exercise vital signs were analyzed in a similar manner; the electrocardiogram exercise data were not formally analyzed and presented using descriptive statistics.

clinical = conditions: male, human, in vivo
[3] = Metoprolol/dronedarone interaction study: plasma pharmacokinetics of metoprolol (Example 1); conditions: dronedarone 400 mg BID + metoprolol 200 mg OD; CYP2D6 extensive metabolizer subjects
[4] = system: healthy male caucasian subjects; assay: Metoprolol/dronedarone interaction study: pharmacodynamics, myocardial contractility (Example 1); type: in vivo, human (healthy male caucasian subjects); conditions: dronedarone 800 mg BID added on top of metoprolol 200 mg OD; p=0.0002
Method: as §1
The pharmacodynamic analyses were based on the change in Day 5 and Day 13 measurements, using a one-way analysis of variance (ANOVA) model with term for dose, for both primary and secondary endpoints; estimates and 95% confidence intervals (CI) of the difference in mean CHGDay13-5 between dronedarone dose groups and the placebo group were derived within the ANOVA framework. As the sample size calculation was based on the comparison of the highest dronedarone dose versus placebo, pairwise comparison were performed without adjustment of the overall treatment first type error rate. Safety evaluation was based upon a review of individual values and descriptive statistics (listings, summary tables, graphics).

[5] = human, in vivo; remark: listed apart in the source
[6] = existing difference, quoted for comparison; cited from earlier work
[7] = 1628 patients with beta-blockers baseline medication, placebo 673 of 1641
[8] = versus placebo, Cox model, beta-blockers baseline medication
[9] = versus placebo, beta-blockers baseline medication

CCCCNCCCOc1ccc(C(=O)c2c(CCCC)oc3ccc(NS(C)(=O)=O)cc23)cc1 [SR35021]
AUC0-24 [1]: 768.6 (278.4) ng · h/ml | Cmax [1]: 85.9 (28.8) ng/ml | tmax [1]: 5.13 (0.72) h

CCCCc1oc2ccc(NS(C)(=O)=O)cc2c1C(=O)c1ccc(OCCCN(CCCC)CCCC)cc1 [dronedarone hydrochloride]
death due to stroke, events reported ([2]; 1628 patients with beta-blockers baseline medication, placebo 11 of 1641): 10 events | sudden cardiac death, events reported ([2]; 1628 patients with beta-blockers baseline medication, placebo 25 of 1641): 9 events | hospitalization for congestive heart failure (CHF), events reported ([2]; 1628 patients with beta-blockers baseline medication, placebo 96 of 1641): 85 events | cardiovascular hospitalization or death, events reported [2, 7]: 553 events | death, events reported [2, 7]: 553 events | relative risk of cardiovascular hospitalization or death [2, 8]: 0.777 | relative risk of death [2, 8]: 0.777 | relative risk of death due to stroke [2, 8]: 0.909 | relative risk of hospitalization for CHF [2, 8]: 0.888 | relative risk of sudden cardiac death [2, 8]: 0.362 | decrease of CHF [2, 9]: 12% | decrease of cardiovascular hospitalization or death [2, 9]: 23% | decrease of death [2, 9]: 23% | decrease of death due to stroke [2, 9]: 10% | decrease of sudden cardiac death [2, 9]: 64%

CCCCc1oc2ccc(NS(C)(=O)=O)cc2c1C(=O)c1ccc(OCCCN(CCCC)CCCC)cc1 [dronedarone, 2-n-Butyl-3-[4-(3-di-n-butylaminopropoxy)benzoyl]-5-methylsulphonamidobenzofuran]
inhibition of CYP2D6 in vivo (CYP2D6): weak inhibitor | increase of steady-state propranolol (80 mg OD) exposure ([1]; male, 7 days): 1.2-1.3 fold | Resting diastolic blood pressure, change (healthy male subjects; single dose): −3% | Resting heart rate, change (healthy male subjects; single dose): 2% | Resting systolic blood pressure, change (healthy male subjects; single dose): −5% | diastolic blood pressure during sub-maximal exercise, change from baseline (healthy male subjects; single dose): −2% | heart rate during sub-maximal exercise, change from baseline (healthy male subjects; single dose): −3% | systolic blood pressure during sub-maximal exercise, change from baseline (healthy male subjects; single dose): −2% | PQ interval, change from baseline (healthy male subjects; single oral administration): increase | T-wave amplitude, change from baseline (healthy male subjects; single oral administration): increase | AUC(0-t) (clinical; AUC0-24): 983 ng·h/mL | Cmax (clinical; Cmax): 140 ng/mL | tmax (clinical; tmax): 3.63 h | effect on alpha hydroxymetoprolol exposures [3]: without significant effect | risk of bradycardia ([2]; patients using both dronedarone and beta-blockers except sotalol): no clinically significant increase | reduction in Vcfmean (myocardial contractility) [4]: -0.28 s⁻¹

COCCc1ccc(OCC(O)CNC(C)C)cc1 (stereo not shown) [metoprolol]
metoprolol Cmax and AUC0-24h after 8 days of treatment [5]: significantly higher | AUC0-24 ([5]; male): 1541 (1563) ng · h/mL | AUC0-24 ratio estimate (day 13/day 5) and 90% CI ([5]; male): 1.29 [1.08-1.55] | Cmax ([5]; male): 100.6 (86.4) ng/mL | Cmax ratio estimate (day 13/day 5) and 90% CI ([5]; male): 1.34 [1.08-1.66] | increase in AUC0-24 ([5]; male): 1.6 fold | increase in Cmax ([5]; male): 1.8 fold | tmax ([5]; male): 4.0 h | difference in metoprolol exposure (AUC) between poor and extensive CYP2D6 metabolizers [6]: 6 fold | difference in metoprolol exposure (Cmax) between poor and extensive CYP2D6 metabolizers [6]: 3 fold

CC(C)NCC(O)COc1cccc2ccccc12 (stereo not shown) [propranolol]
AUC0-12 [1]: 318.75 (178.62) ng · h/ml | AUClast [1]: 360.85 (210.30) ng · h/ml | Cmax [1]: 59.79 (33.77) ng/ml | tmax [1]: 2.19 (0.66) h | magnitude of the PR prolongation (healthy male subjects; after repeated administration, p<0.001): 3.9% | magnitude of the T-wave increase (healthy male subjects; after repeated administration, p=0.001): 28.3% | reduction of HR (healthy male subjects; at steady state): −8.9% | mean change from baseline in QT (healthy male subjects; based on AUC0-8 h, at steady state): 3.6% | mean change from baseline in QTc (healthy male subjects; based on AUC0-8 h, at steady state, p<0.001): −1.9% | QT interval, change from baseline (resting electrocardiogram) (healthy male subjects; repeated daily dosing): 4% | QTc interval, change from baseline (resting electrocardiogram) (healthy male subjects; repeated daily dosing): −2% | T-wave amplitude, change from baseline (resting electrocardiogram) (healthy male subjects; repeated daily dosing): 28% | PQ interval, change from baseline (resting electrocardiogram) (healthy male subjects; repeated once daily dosing): 4% | Resting electrocardiogram heart rate, change compared to baseline (healthy male subjects; repeated once daily dosing): −9% | Resting diastolic blood pressure, change (healthy male subjects; repeated oral administration): −10% | Resting heart rate, change (healthy male subjects; repeated oral administration): −8% | Resting systolic blood pressure, change (healthy male subjects; repeated oral administration): −5% | diastolic blood pressure during sub-maximal exercise, change from baseline (healthy male subjects; repeated oral administration): −2% | heart rate during sub-maximal exercise, change from baseline (healthy male subjects; repeated oral administration): −16% | systolic blood pressure during sub-maximal exercise, change from baseline (healthy male subjects; repeated oral administration): −12% | Resting diastolic blood pressure, change (healthy male subjects; single dose): −4% | Resting heart rate, change (healthy male subjects; single dose): −10% | Resting systolic blood pressure, change (healthy male subjects; single dose): −3% | diastolic blood pressure during sub-maximal exercise, change from baseline (healthy male subjects; single dose): 2% | heart rate during sub-maximal exercise, change from baseline (healthy male subjects; single dose): −17% | systolic blood pressure during sub-maximal exercise, change from baseline (healthy male subjects; single dose): −13%

Source: patent US8602215B2, “Methods for reducing the risk of an adverse dronedarone/beta-blockers interaction in a patient suffering from atrial fibrillation” (Sanofi, priority 2010, dated 2013)
